According to ChEMBL document CHEMBL4118132, “Novel 5-methyl-2-phenylphenanthridium derivatives as FtsZ-targeting antibacterial agents from structural simplification of natural product sanguinarine” (2018):
Activity calls are given as the source filed them. The rule behind the calls is not given here.

Assays:
Staphylococcus aureus [1] = test: Antibacterial activity against methicillin-resistant Staphylococcus aureus ATCC 43300 after 24 hrs by broth microdilution method; assay type: functional; settings: ATCC 43300, 24 h
Staphylococcus aureus [2] = test: Antibacterial activity against penicillin-resistant Staphylococcus aureus clinical isolate after 24 hrs by broth microdilution method; assay type: functional
[3] = test system: Staphylococcus epidermidis; test: Antibacterial activity against penicillin-resistant Staphylococcus epidermidis clinical isolate after 24 hrs by broth microdilution method; assay type: functional
Staphylococcus aureus [4] = test: Potency index, ratio of ciprofloxacin MIC to test compound MIC for penicillin-resistant Staphylococcus aureus clinical isolate; assay type: functional
Streptococcus pyogenes [5] = test: Antibacterial activity against penicillin-susceptible Streptococcus pyogenes after 24 hrs by broth microdilution method; assay type: functional
Streptococcus pyogenes [6] = test: Antibacterial activity against penicillin-resistant Streptococcus pyogenes after 24 hrs by broth microdilution method; assay type: functional
Bacillus subtilis [7] = test: Antibacterial activity against penicillin-susceptible Bacillus subtilis ATCC 9372 after 24 hrs by broth microdilution method; assay type: functional; settings: ATCC 9372, 24 h
Escherichia coli = test: Antibacterial activity against penicillin-susceptible Escherichia coli ATCC 25922 after 24 hrs by broth microdilution method; assay type: functional; settings: ATCC 25922, 24 h
Pseudomonas aeruginosa = test: Antibacterial activity against penicillin-susceptible Pseudomonas aeruginosa ATCC 27853 after 24 hrs by broth microdilution method; assay type: functional; settings: ATCC 27853, 24 h
Staphylococcus aureus [8] = test: Potency index, ratio of ciprofloxacin MIC to test compound MIC for penicillin-susceptible Staphylococcus aureus ATCC 25923; assay type: functional
Staphylococcus aureus [9] = test: Potency index, ratio of ciprofloxacin MIC to test compound MIC for methicillin-resistant Staphylococcus aureus ATCC 43300; assay type: functional
Staphylococcus aureus [10] = test: Potency index, ratio of oxacillin sodium MIC to test compound MIC for methicillin-resistant Staphylococcus aureus ATCC 43300; assay type: functional
Staphylococcus aureus [11] = test: Potency index, ratio of oxacillin sodium MIC to test compound MIC for penicillin-resistant Staphylococcus aureus clinical isolate; assay type: functional
[12] = test system: Staphylococcus epidermidis; test: Potency index, ratio of ciprofloxacin MIC to test compound MIC for penicillin-resistant Staphylococcus epidermidis clinical isolate; assay type: functional
Bacillus subtilis [13] = test: Potency index, ratio of oxacillin sodium MIC to test compound MIC for penicillin-susceptible Bacillus subtilis ATCC 9372; assay type: functional
Streptococcus pyogenes [14] = test: Potency index, ratio of oxacillin sodium MIC to test compound MIC for penicillin-resistant Streptococcus pyogenes; assay type: functional
Staphylococcus aureus [15] = test: Bactericidal activity against penicillin-susceptible Staphylococcus aureus ATCC 25923 after 24 hrs by flat colony counting method; assay type: functional; settings: ATCC 25923, 24 h
Staphylococcus aureus [16] = test: Bactericidal activity against penicillin-susceptible Staphylococcus aureus ATCC 25923 assessed as bacterial levels at 32 ug/ml after 1 hr by time-kill assay (reference value: 6.13 to 6.14 log10CFU/ml); assay type: functional
Staphylococcus aureus [17] = test: Bactericidal activity against penicillin-susceptible Staphylococcus aureus ATCC 25923 assessed as bacterial levels at 16 ug/ml after 1 hr by time-kill assay (reference value: 6.13 to 6.14 log10CFU/ml); assay type: functional
Staphylococcus aureus [18] = test: Bactericidal activity against penicillin-susceptible Staphylococcus aureus ATCC 25923 assessed as bacterial levels at 8 ug/ml after 1 hr by time-kill assay (reference value: 6.13 to 6.14 log10CFU/ml); assay type: functional
Staphylococcus aureus [19] = test: Bactericidal activity against penicillin-susceptible Staphylococcus aureus ATCC 25923 assessed as bacterial levels at 16 ug/ml after 2 hrs by time-kill assay (reference value: 6.13 to 6.17 log10CFU/ml); assay type: functional
Staphylococcus aureus [20] = test: Bactericidal activity against penicillin-susceptible Staphylococcus aureus ATCC 25923 assessed as bacterial levels at 8 ug/ml after 2 hrs by time-kill assay (reference value: 6.13 to 6.17 log10CFU/ml); assay type: functional
Staphylococcus aureus [21] = test: Bactericidal activity against penicillin-susceptible Staphylococcus aureus ATCC 25923 assessed as bacterial levels at 32 ug/ml after 4 hrs by time-kill assay (reference value: 6.13 to 6.71 log10CFU/ml); assay type: functional
Staphylococcus aureus [22] = test: Bactericidal activity against penicillin-susceptible Staphylococcus aureus ATCC 25923 assessed as bacterial levels at 16 ug/ml after 4 hrs by time-kill assay (reference value: 6.13 to 6.71 log10CFU/ml); assay type: functional
Staphylococcus aureus [23] = test: Bactericidal activity against penicillin-susceptible Staphylococcus aureus ATCC 25923 assessed as bacterial levels at 8 ug/ml after 4 hrs by time-kill assay (reference value: 6.13 to 6.71 log10CFU/ml); assay type: functional
Staphylococcus aureus [24] = test: Bactericidal activity against penicillin-susceptible Staphylococcus aureus ATCC 25923 assessed as bacterial levels at 32 ug/ml after 6 hrs by time-kill assay (reference value: 6.13 to 7.54 log10CFU/ml); assay type: functional
Staphylococcus aureus [25] = test: Bactericidal activity against penicillin-susceptible Staphylococcus aureus ATCC 25923 assessed as bacterial levels at 16 ug/ml after 6 hrs by time-kill assay (reference value: 6.13 to 7.54 log10CFU/ml); assay type: functional
Staphylococcus aureus [26] = test: Bactericidal activity against penicillin-susceptible Staphylococcus aureus ATCC 25923 assessed as bacterial levels at 8 ug/ml after 6 hrs by time-kill assay (reference value: 6.13 to 7.54 log10CFU/ml); assay type: functional
Staphylococcus aureus [27] = test: Bactericidal activity against penicillin-susceptible Staphylococcus aureus ATCC 25923 assessed as bacterial levels at 32 ug/ml after 12 hrs by time-kill assay (reference value: 6.13 to 8.01 log10CFU/ml); assay type: functional
Staphylococcus aureus [28] = test: Bactericidal activity against penicillin-susceptible Staphylococcus aureus ATCC 25923 assessed as bacterial levels at 16 ug/ml after 12 hrs by time-kill assay (reference value: 6.13 to 8.01 log10CFU/ml); assay type: functional
Staphylococcus aureus [29] = test: Bactericidal activity against penicillin-susceptible Staphylococcus aureus ATCC 25923 assessed as bacterial levels at 16 ug/ml after 24 hrs by time-kill assay (reference value: 6.13 to 8.34 log10CFU/ml); assay type: functional
Staphylococcus aureus [30] = test: Bactericidal activity against penicillin-susceptible Staphylococcus aureus ATCC 25923 assessed as bacterial levels at 8 ug/ml after 24 hrs by time-kill assay (reference value: 6.13 to 8.34 log10CFU/ml); assay type: functional
[31] = molecular target: T1, Cell division protein FtsZ (Bacillus subtilis) (UniProt A5Z1V5); test: Inhibition of FtsZ in penicillin-susceptible Bacillus subtilis ATCC 9372 assessed as increase in length of bacteria at 0.125 ug/ml after 5 hrs by phase-contrast light microscopic method
T1 sequence (whole entry): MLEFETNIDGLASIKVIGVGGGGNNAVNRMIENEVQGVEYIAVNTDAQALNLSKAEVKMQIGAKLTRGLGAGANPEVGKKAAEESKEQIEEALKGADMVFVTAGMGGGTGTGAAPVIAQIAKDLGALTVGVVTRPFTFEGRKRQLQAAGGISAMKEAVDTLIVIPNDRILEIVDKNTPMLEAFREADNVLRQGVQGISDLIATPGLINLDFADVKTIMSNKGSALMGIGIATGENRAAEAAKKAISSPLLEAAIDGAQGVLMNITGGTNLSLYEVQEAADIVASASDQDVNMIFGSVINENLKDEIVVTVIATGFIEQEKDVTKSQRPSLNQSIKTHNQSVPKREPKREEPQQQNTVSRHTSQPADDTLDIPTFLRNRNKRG

**Q.** For `Cc1cc(-c2ccc(C(F)(F)F)cc2)cc2c3ccccc3c[n+](C)c12.[Cl-]`, which MIC (Staphylococcus aureus [1]) is on record?
**A.** 0.25 µg/mL

**Q.** And the MIC (Staphylococcus aureus [2])?
**A.** 0.25 µg/mL

**Q.** What about the MIC [3] of the same molecule?
**A.** 0.125 µg/mL

**Q.** What about the Ratio (Staphylococcus aureus [4]) of the same molecule?
**A.** 64

**Q.** And the MIC (Streptococcus pyogenes [5])?
**A.** 1 µg/mL

**Q.** What about the MIC (Streptococcus pyogenes [6]) of the same molecule?
**A.** 2 µg/mL

**Q.** What about the MIC (Bacillus subtilis [7]) of the same molecule?
**A.** 0.06 µg/mL

**Q.** And the MIC (Escherichia coli)?
**A.** > 64 µg/mL

**Q.** What about the MIC (Pseudomonas aeruginosa) of the same molecule?
**A.** > 64 µg/mL

**Q.** And the Ratio (Staphylococcus aureus [8])?
**A.** 133

**Q.** And the Ratio (Staphylococcus aureus [9])?
**A.** 64

**Q.** And the Ratio (Staphylococcus aureus [10])?
**A.** 256

**Q.** And the Ratio (Staphylococcus aureus [11])?
**A.** 256

**Q.** What about the Ratio [12] of the same molecule?
**A.** 512

**Q.** What about the Ratio (Bacillus subtilis [13]) of the same molecule?
**A.** 67

**Q.** And the Ratio (Streptococcus pyogenes [14])?
**A.** 32

**Q.** And the MBC (Staphylococcus aureus [15])?
**A.** 16 µg/mL

**Q.** And the Activity (Staphylococcus aureus [16])?
**A.** 5.57 log10CFU/ml

**Q.** What about the Activity (Staphylococcus aureus [17]) of the same molecule?
**A.** 5.89 log10CFU/ml

**Q.** And the Activity (Staphylococcus aureus [18])?
**A.** 6.05 log10CFU/ml

**Q.** And the Activity (Staphylococcus aureus [19])?
**A.** 6 log10CFU/ml

**Q.** What about the Activity (Staphylococcus aureus [20]) of the same molecule?
**A.** 6.06 log10CFU/ml

**Q.** What about the Activity (Staphylococcus aureus [21]) of the same molecule?
**A.** 4 log10CFU/ml

**Q.** What about the Activity (Staphylococcus aureus [22]) of the same molecule?
**A.** 5.75 log10CFU/ml

**Q.** And the Activity (Staphylococcus aureus [23])?
**A.** 6.04 log10CFU/ml

**Q.** What about the Activity (Staphylococcus aureus [24]) of the same molecule?
**A.** 0 log10CFU/ml

**Q.** And the Activity (Staphylococcus aureus [25])?
**A.** 5.42 log10CFU/ml

**Q.** What about the Activity (Staphylococcus aureus [26]) of the same molecule?
**A.** 6.07 log10CFU/ml

**Q.** And the Activity (Staphylococcus aureus [27])?
**A.** 0 log10CFU/ml

**Q.** And the Activity (Staphylococcus aureus [28])?
**A.** 4 log10CFU/ml

**Q.** And the Activity (Staphylococcus aureus [29])?
**A.** 0 log10CFU/ml

**Q.** And the Activity (Staphylococcus aureus [30])?
**A.** 5.88 log10CFU/ml

**Q.** And the inhibition [31]?
**A.** Active
